# Earlier results as cited in patent US20070128633A1, “Cell-free protein expression systems and methods of use thereof” (ChemBridge Research Laboratories, Inc., priority 2005, published 2007).
# Legend:
# streptavidin = streptavidin (Streptomyces avidinii, UniProt P22629); details: tag fused to the C- or N-termini of a recombinant protein; Skerra and Schmidt (2000)
# [1] = system: KIT variants containing 2 out of these 6 mutations; details: KIT variants with 2 of 6 catalytic domain point mutations found in seminomas; Kemmer et al. (2004)
# [2] = target: KIT active site mutation D816V (Homo sapiens, UniProt P10721, D816V); details: sporadic adult human mastocytosis, Ma et al. (2002)
# Sequence of KIT active site mutation D816V (P10721 26-976 D816V): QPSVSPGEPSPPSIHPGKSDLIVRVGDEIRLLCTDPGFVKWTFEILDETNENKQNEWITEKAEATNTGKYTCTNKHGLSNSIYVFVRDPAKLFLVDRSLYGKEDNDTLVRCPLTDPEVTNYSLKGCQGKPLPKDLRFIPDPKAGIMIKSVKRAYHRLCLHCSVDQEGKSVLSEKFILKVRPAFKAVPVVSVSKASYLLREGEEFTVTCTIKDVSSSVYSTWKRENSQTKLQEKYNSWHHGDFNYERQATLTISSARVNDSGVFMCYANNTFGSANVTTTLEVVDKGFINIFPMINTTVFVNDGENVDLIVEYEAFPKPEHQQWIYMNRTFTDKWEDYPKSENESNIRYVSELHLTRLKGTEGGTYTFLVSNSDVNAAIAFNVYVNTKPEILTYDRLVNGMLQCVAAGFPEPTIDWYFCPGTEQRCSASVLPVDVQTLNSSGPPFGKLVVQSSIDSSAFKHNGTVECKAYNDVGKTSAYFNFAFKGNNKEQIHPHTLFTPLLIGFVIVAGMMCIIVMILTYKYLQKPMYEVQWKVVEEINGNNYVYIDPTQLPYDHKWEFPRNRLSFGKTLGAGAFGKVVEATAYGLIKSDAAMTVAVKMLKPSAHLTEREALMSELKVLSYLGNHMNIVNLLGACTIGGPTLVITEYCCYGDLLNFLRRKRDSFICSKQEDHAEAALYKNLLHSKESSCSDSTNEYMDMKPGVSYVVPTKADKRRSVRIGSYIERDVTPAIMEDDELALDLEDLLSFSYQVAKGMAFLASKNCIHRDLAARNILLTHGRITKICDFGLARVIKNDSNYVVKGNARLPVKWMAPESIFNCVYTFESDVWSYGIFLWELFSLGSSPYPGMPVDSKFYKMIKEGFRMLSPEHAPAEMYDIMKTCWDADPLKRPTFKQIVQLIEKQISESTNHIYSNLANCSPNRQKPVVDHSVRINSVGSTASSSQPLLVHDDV
# Sequence of streptavidin (P22629 25-183, species assumed): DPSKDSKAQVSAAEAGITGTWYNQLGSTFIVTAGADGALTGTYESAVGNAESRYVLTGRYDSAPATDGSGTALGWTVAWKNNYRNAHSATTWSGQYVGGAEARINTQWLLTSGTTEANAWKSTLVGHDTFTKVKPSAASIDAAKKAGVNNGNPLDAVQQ
Compound,Kd (streptavidin) [µM],inhibition of KIT variants [1],response to imatinib treatment [2]
WSHPQFEK [Strep-Tag II],18,,
Cc1ccc(NC(=O)c2ccc(CN3CCN(C)CC3)cc2)cc1Nc1nccc(-c2cccnc2)n1 [imatinib],,not inhibited,resistance
